What is called EC50 is the concentration giving half of the maximal effect.

For one molecule, EC50 results are on record in patent US20240360116A1, “BICYCLIC DERIVATIVES” (ELANCO TIERGESUNDHEIT AG, priority 2020, published 2024).

One assay concerns the target D. immitis Slo-1 (Dirofilaria immitis, UniProt I0DFK5). The assay is described as follows: In Vitro Assay 2: D. immitis Slo-1 recombinant CHO cell line, membrane potential. The conditions noted are these: EC50, CHO cells expressing D. immitis Slo-1, voltage sensitive dye, FLIPR Tetra, 70 mM KCl. Type of assay: cell-based.
Assay [1] deals with Dirofilaria immitis microfilariae. The assay is described as follows: In Vitro Assay 3: Dirofilaria immitis microfilariae (DIROIM L1). Conditions: 72 h, read-out: EC50 (reduction of motility).
Assay [2] concerns Dirofilaria immitis third-stage larvae. Description: In Vitro Assay 4: Dirofilaria immitis (DIROIM L4). The conditions noted are these: 72 h, read-out: EC50 (reduction of motility).
Assay [3] deals with Adult Nippostrongylus brasiliensis. Description: In Vitro Assay 5: Nippostrongylus brasiliensis (NIPOBR), acetylcholine esterase readout. Conditions: adult worms, tested at 10, 1 and 0.1 ppm, vs negative control. The procedure:
Adult Nippostrongylus brasiliensis were washed with saline buffer containing 100 U/ml penicillin, 0.1 mg/ml streptomycin and 2.5 μg/ml amphotericin B. Test compounds were dissolved in DMSO and worms were incubated in medium in a final concentration of 10 μg/ml (10 ppm), 1 μg/ml (1 ppm) and 0.1 μg/ml (0.1 ppm) respectively. An aliquot of the medium was used to determine the acetylcholine esterase activity in comparison to a negative control. The principle of measuring acetylcholine esterase as readout for anthelmintic activity was described in Rapson et al (1986) and Rapson et al (1987).
Based on the evaluation of a wide concentration range, concentration-response curves as well as EC50-values were calculated.

SMILES strings stand for the structures.

D. immitis Slo-1, sequence (I0DFK5 1-1119): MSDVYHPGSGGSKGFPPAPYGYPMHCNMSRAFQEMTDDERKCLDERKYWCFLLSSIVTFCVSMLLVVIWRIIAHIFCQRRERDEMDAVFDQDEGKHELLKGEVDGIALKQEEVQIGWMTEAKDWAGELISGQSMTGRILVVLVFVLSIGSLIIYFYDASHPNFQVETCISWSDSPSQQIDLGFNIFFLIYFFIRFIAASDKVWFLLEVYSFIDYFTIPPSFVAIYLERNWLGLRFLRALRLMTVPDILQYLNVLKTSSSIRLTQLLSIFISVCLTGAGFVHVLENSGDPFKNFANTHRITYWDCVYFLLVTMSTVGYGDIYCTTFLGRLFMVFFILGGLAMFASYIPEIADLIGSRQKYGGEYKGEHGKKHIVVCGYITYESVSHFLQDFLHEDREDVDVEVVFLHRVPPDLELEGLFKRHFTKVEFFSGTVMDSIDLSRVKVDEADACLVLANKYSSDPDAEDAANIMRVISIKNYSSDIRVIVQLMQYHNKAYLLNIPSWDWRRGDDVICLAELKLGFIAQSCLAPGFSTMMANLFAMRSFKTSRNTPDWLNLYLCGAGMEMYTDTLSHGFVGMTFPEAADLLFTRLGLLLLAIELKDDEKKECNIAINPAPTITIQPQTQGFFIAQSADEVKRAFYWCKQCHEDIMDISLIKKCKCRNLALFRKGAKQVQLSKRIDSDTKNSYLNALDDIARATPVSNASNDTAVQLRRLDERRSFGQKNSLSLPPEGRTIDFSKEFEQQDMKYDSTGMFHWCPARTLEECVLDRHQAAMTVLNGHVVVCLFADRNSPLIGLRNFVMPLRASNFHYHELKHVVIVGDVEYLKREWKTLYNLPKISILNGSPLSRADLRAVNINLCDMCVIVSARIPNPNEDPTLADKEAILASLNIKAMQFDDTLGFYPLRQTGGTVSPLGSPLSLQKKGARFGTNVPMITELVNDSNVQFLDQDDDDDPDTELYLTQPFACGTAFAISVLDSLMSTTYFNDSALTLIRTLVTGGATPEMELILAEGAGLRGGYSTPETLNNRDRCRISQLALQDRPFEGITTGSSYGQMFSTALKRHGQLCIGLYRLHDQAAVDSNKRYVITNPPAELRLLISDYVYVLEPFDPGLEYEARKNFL

As for `O=C1CC(c2c(C(=O)NN3CCOc4ccccc43)cnc3c(-c4cc(F)cc(F)c4F)c(F)ccc23)C1` [Example 5.82, N-(2,3-dihydro-1,4-benzoxazin-4-yl)-7-fluoro-4-(3-oxocyclobutyl)-8-(2,3,5-trifluorophenyl)quinoline-3-carboxamide], the EC50 is less than 100 nM at D. immitis Slo-1, less than 0.1 µg/mL in assay [1], less than 0.1 µg/mL in assay [2] and less than 0.1 µg/mL in assay [3].
